{"source": "ChEMBL document CHEMBL5244238", "about": "“Targeting mTOR for fighting diseases: A revisited review of mTOR inhibitors” (Eur J Med Chem, 2020)", "key": {"A549": {"tested_on": "A549", "test": "cells", "conditions": "Homo sapiens", "description": "Antiproliferative activity against human A549 cells"}, "MCF7": {"tested_on": "MCF7", "test": "Antiproliferative activity against human MCF7 cells", "type": "functional, cell-based"}, "[1]": {"target": "Serine/threonine-protein kinase mTOR (Homo sapiens, UniProt P42345)", "description": "Inhibition of mTOR (unknown origin)"}, "clinical": {"test": "clinical", "conditions": "human"}, "CAKI-1": {"tested_on": "CAKI-1", "test": "cells", "conditions": "Homo sapiens", "description": "Antiproliferative activity against human CAKI-1 cells"}, "HeLa": {"tested_on": "HeLa", "test": "cells", "conditions": "Homo sapiens", "description": "Antiproliferative activity against human HeLa cells"}, "PC-3": {"tested_on": "PC-3", "test": "cells", "conditions": "Homo sapiens", "description": "Antiproliferative activity against human PC-3 cells"}, "MIA PaCa-2": {"tested_on": "MIA PaCa-2", "test": "cells", "conditions": "Homo sapiens", "description": "Antiproliferative activity against human MIA PaCa-2 cells"}, "Homo sapiens": {"species": "Homo sapiens", "test": "Selectivity index, ratio of IC50 for PI3Kalpha (unknown origin) to IC50 for mTOR (unknown origin)", "type": "functional"}}, "data": [{"compound": "CCc1ccc(C(=O)c2cnc3cc4c(cc3c2N2CCC(C(N)=O)CC2)OCCO4)cc1", "values": [{"measurement": "IC50", "setting": "A549", "value": 8, "unit": "µM"}, {"measurement": "IC50", "setting": "MCF7", "value": 2, "unit": "µM"}]}, {"compound": "CCOC(=O)N1Cc2nc(-c3ccc(NC(=O)NC4CC4)cc3)nc(N3CCOC[C@@H]3C)c2C1", "values": [{"measurement": "IC50", "setting": "[1]", "value": "< 1", "unit": "µM"}]}, {"compound": "CO[C@H]1C[C@@H]2CC[C@@H](C)[C@@](O)(O2)C(=O)C(=O)N2CCCC[C@H]2C(=O)O[C@H]([C@H](C)C[C@@H]2CC[C@@H](O)[C@H](OC)C2)CC(=O)[C@H](C)/C=C(\\C)[C@@H](O)[C@@H](OC)C(=O)[C@H](C)C[C@H](C)/C=C/C=C/C=C/1C", "note": "[SIROLIMUS]", "values": [{"measurement": "half-life", "setting": "clinical", "value": 40, "unit": "h"}]}, {"compound": "CO[C@H]1C[C@@H]2CC[C@@H](C)[C@@](O)(O2)C(=O)C(=O)N2CCCC[C@H]2C(=O)O[C@H]([C@H](C)C[C@@H]2CC[C@@H](OCCO)[C@H](OC)C2)CC(=O)[C@H](C)/C=C(\\C)[C@@H](O)[C@@H](OC)C(=O)[C@H](C)C[C@H](C)/C=C/C=C/C=C/1C", "note": "[EVEROLIMUS]", "values": [{"measurement": "IC50", "setting": "[1]", "value": 0.005, "unit": "µM"}]}, {"compound": "CCCc1nn(C)c2c(=O)[nH]c(-c3cc(OC)cc(OC)c3)nc12", "values": [{"measurement": "IC50", "setting": "CAKI-1", "value": 17, "unit": "µM"}, {"measurement": "IC50", "setting": "A549", "value": 14, "unit": "µM"}, {"measurement": "IC50", "setting": "HeLa", "value": 19, "unit": "µM"}, {"measurement": "IC50", "setting": "PC-3", "value": 38, "unit": "µM"}, {"measurement": "IC50", "setting": "MIA PaCa-2", "value": 24, "unit": "µM"}]}, {"compound": "O=C(c1ccc(C(=O)C(F)(F)F)cc1)N1CCOc2ccc(-c3cnc4ccccc4c3)cc2C1", "values": [{"measurement": "IC50", "setting": "[1]", "value": 0.095, "unit": "µM"}, {"measurement": "Ratio IC50", "setting": "Homo sapiens", "value": 4}]}, {"compound": "COc1ccc(C2Cc3c(C)nc(N)nc3N([C@H]3CC[C@H](OCCO)CC3)C2=O)cn1", "note": "(some centres undefined)", "values": [{"measurement": "IC50", "setting": "[1]", "value": 0.016, "unit": "µM"}]}, {"compound": "C[C@H]1COCCN1c1nc(-c2ccc(NC(=O)NCC(F)F)cc2)cc(-c2cc(F)ccc2S(C)(=O)=O)n1", "values": [{"measurement": "IC50", "setting": "[1]", "value": "< 1", "unit": "µM"}]}]}
